From paper PMC9144936, “New Cu^+2 Complexes with N-Sulfonamide Ligands: Potential Antitumor, Antibacterial, and Antioxidant Agents” (Molecules, 2022) come the findings set out here.

A short description of assay [1]: SOD mimetic activity, xanthine/xanthine oxidase system, NBT reduction. Conditions: pH 7.8, read-out: SOD-like activity IC50 (50% inhibition of NBT reduction). Type of assay: biochemical. The method, then: The SOD-like activities of complexes C1 and C2 were determined by an indirect method using the xanthine/xanthine oxidase system as the source of superoxide radicals. […] The IC50 value for native Cu2Zn2SOD is 0.006 μΜ. Thus, the IC50 values for both complexes are higher than the IC50 value for native Cu2Zn2SOD but are similar to those of complexes with related sulfonamide ligands presented in the literature.
The in vitro SOD mimetic activities of the complexes were assayed using the Oberley and Spitz method with some minor modifications. To generate a reproductible and constant flux of superoxide anions, xanthine (1.5 × 10^−4 M) and xanthine oxidase in 50 mM potassium phosphate buffer, pH = 7.8, were used. The superoxide anions were detected by the reduction of nitro blue tetrazolium (NBT) (5.6 × 10^−5 M) to blue formazane, which was determined spectrophotometrically at 560 nm. Different concentrations of the complexes (50, 25, 12.5, 2, and 0.2 μM) were prepared in 50 mM Tris-HCl buffer, pH = 7.8. For each determination, 0.1 mL complex solution + 0.1 mL xanthine oxidase were added to 0.8 mL of solution containing 0.69 mL potassium phosphate buffer (pH = 7.8), 0.025 mL NBT, and […]. The inhibition percentage of NBT reduction was used to determine the SOD activities of the complexes. The conversion of xanthine to uric acid was measured at 310 nm. The % inhibition of enzyme activity was subtracted from that of NBT. The IC50 values (the concentration of complex needed to yield 50% inhibition of NBT reduction) were determined from plots of % inhibition versus complex concentration. A Specord 200 Plus Spectrophotometer was used to perform the determinations and all reagents were purchased from Sigma-Aldrich.

Assay [2] relates to human cervical carcinoma line (HeLa). Nature of the assay: MTT cytotoxicity assay, HeLa. Conditions: HeLa cells. Type of assay: cell-based. As for the experimental part:
Three cell lines were used to determine the cytotoxicity of the complexes, a human cervical carcinoma line (HeLa), a human radical growth phase melanoma cell line (WM35), and a normal fibroblastic epithelial cell line (HFL1) using the MTT method. The cells were exposed to C1 and C2 complexes in different concentrations (50, 25, 12.5, 2, and 0.2 µM) at 24, 48, and 72 h. As positive contro, cisplatin was used.
To determine the cytotoxicity of the copper complexes, three cell lines were used: a human cervical carcinoma line (HeLa), a human radical growth phase melanoma cell line (WM35), and a normal fibroblastic epithelial cell line (HFL1). The cell lines were obtained from ATCC (American Type Cell Collection, Manassas, VA 20110-2209, USA) and were maintained in DMEM (Sigma-Aldrich, Saint Louis, Missouri, USA) supplemented with 10% fetal bovine serum (Hyclone), 1 mM glutamine (Sigma-Aldrich), and 1% antibiotic antimycotic 100× (Sigma-Aldrich). The cells were cultured at 37 °C in an atmosphere of 5% CO2 and 95% relative humidity.
The cytotoxicity assays were performed using the MTT assay (3-(4,5-dimethylthiazol-2-yl)-2,5-diphenyl tetrazolium bromide-Sigma Aldrich). Cells were plated at a density of 1 × 10^5 cells/well in 96-well plates for 24 h in normal propagation media. The cultures were then exposed to C1 and C2 complexes in different concentrations (50, 25, 12.5, 2, and 0.2 µM). The complexes were first solubilized in DMSO (Sigma) and then serial dilutions in media were performed until the final concentration of DMSO was less than 1%. As a positive control, cisplatin (Ebewe Pharma Ges.m.b.H. Nfg. KG, Austria) was used, in the same concentrations as the complexes. As a negative control, cell lines cultivated in normal expansion medium with the same amount of DMSO added were used. The cellular viability was determined using the MTT assay at 24, 48, and 72 h, respectively. Formazan particles were solubilized with DMSO and absorbances were determined at 550 nm using a microplate reader (Bio-Rad, Hercules, CA, USA). The cytotoxic activity, expressed as IC50 values representing the complex solution required to inhibit 50% of the cell proliferation, were calculated from the calibration curve by nonlinear regression. Each experiment was carried out in triplicate.
(Formazan colour is commonly taken as a measure of viable cells.)

Assay [3] deals with Escherichia coli ATCC 10536. The assay is described as follows: Disk diffusion method, E. coli. Type of assay: cell-based. Conditions: complexes 5 µL of 1 mg/mL; 25 µg Amoxicillin, 5 µg Norfloxacin; 24 h, 37 °C. An excerpt:
(§1) The disk diffusion method was used to determine the antibacterial activity of the C1 and C2 copper complexes on four reference microbial strains, two Gram-positive (Staphylococcus aureus and Bacillus cerreus) and two Gram-negative (Escherichia coli and Pseudomonas aeruginosa) strains. The disk diffusion method was used to determine the antibacterial activity of the C1 and C2 copper complexes. The method was adapted for the purposes of the current study, according to the standards developed by the Clinical and Laboratory Standards Institute. Four reference microbial strains, two Gram-positive (Staphylococcus aureus ATCC […] and Bacillus cerreus ATCC 14579) and two Gram-negative (Escherichia coli ATCC 10536 and Pseudomonas aeruginosa ATCC 27853) strains, were used for in vitro susceptibility testing. These reference microbial strains were obtained from the American Type Culture Collection (ATCC, Manassas, VA, USA). As positive controls, Amoxicillin (Oxoid Ltd., Basingstoke, UK) and Norfloxacin (Sigma-Aldrich) were used. For each of the four species, an initial suspension of bacterial cultures was inoculated on nutrient agar plates (Merck KGaA, Darmstadt, Germany), incubated for 24 h at 37 ± 2 °C and resuspended in a physiological saline buffer to a […] concentration (on a 0.5 McFarland scale), and further inoculated on Muëller Hinton agar plates (Merck KGaA, Darmstadt, Germany). […] After inoculation, the medium surface was dried and 8 wells were radially drilled 1.5 cm from the outer edge, 3 cm apart. From aliquot samples of 1 mg/mL of each copper complex dissolved in DMSO and incorporated in sterile liquid medium, 5 μL was placed in each of the 8 wells and left for 30 min to diffuse into the agar plates. The plates were then incubated for 24 h at 37 ± 2 °C. Then, 25 μg Amoxicillin and 5 μg Norfloxacin served as a positive controls, while DMSO 0.75% was used as a negative control. Readings were conducted by measuring the diameter of the inhibition zone (Halo Zone Test, in mm). The germ sensitivity of the copper complexes was estimated by comparing the diameter of the inhibition area to that generated by the regular antibiotics with known inhibition values. […] All tests were triplicated, and the measured diameters of the inhibition zone were expressed (in mm) as mean ± standard deviation.
For orientation: A growth-free zone around the sample is the usual read-out of agar diffusion tests.

In assay [4] the test system is Pseudomonas aeruginosa ATCC 27853. The assay is described as follows: Disk diffusion method, P. aeruginosa. As to conditions: complexes 5 µL of 1 mg/mL; 5 µg Norfloxacin; 24 h, 37 °C. It is filed as cell-based.
Text: as §1

In assay [5] the test system is Staphylococcus aureus ATCC 6538P. The assay is described as follows: Disk diffusion method, S. aureus. Type of assay: cell-based. Conditions: complexes 5 µL of 1 mg/mL; 25 µg Amoxicillin, 5 µg Norfloxacin; 24 h, 37 °C.
Text: as §1

Broadly, the IC50 is the concentration that inhibits the measured activity by half. In the case of “[Cu(N-(5-(4-Methylphenyl)-[1,3,4]-Thiadiazole-2-yl) Naphtalenesulfonamidate)2(H2O)3] [C1]”, the IC50 was 0.283 µM in assay [1], 33.18 ± 0.19 µM in assay [2] (24 h), 16.36 ± 0.12 µM in assay [2] (48 h) and 6.47 ± 0.06 µM in assay [2] (72 h). Also, the “Halo Zone Test (diameter of the inhibition zone)” value turned out to be 14 ± 0.11 mm in assay [3], 15 ± 0.32 mm in assay [4] and 13 ± 0.17 mm in assay [5].
For “[Cu(N-(5-Ethyl--[1,3,4]-Thiadiazole-2-yl) Naphtalenesulfonamidate)2(py)2(H2O)] [C2]”, the IC50 in assay [1] came out at 0.174 µM; in assay [2] (24 h) it was 8.79 ± 0.21 µM; in assay [2] (48 h), 4.06 ± 0.05 µM; in assay [2] (72 h), 1.45 ± 0.09 µM. Also, the “Halo Zone Test (diameter of the inhibition zone)” value is on record as 16 ± 0.21 mm in assay [3], 19 ± 0.19 mm in assay [4] and 15 ± 0.44 mm in assay [5].
